In patent US20260200928A1, “THERAPEUTIC COMPOUNDS” (Sanofi, priority 2022, published 2026):

Biological target: T1, human IL-17A (Homo sapiens, UniProt Q16552)
T1 construct: purchased R&D Systems 7955-IL/CF
T1 sequence (Q16552 24-155): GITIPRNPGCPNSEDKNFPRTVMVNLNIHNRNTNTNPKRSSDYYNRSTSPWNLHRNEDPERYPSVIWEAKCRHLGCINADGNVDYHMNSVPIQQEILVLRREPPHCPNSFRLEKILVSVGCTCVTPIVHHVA
Test: IL-17A AlphaLISA competition assay (block of IL-17A binding to its receptor IL-17RA)
Conditions: mean IC50 (n≥2), block of IL-17A binding to IL-17RA
How it was run: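 Human recombinant IL-17A (7.5 nM stock) pre-incubated 30 min at RT with compound, then IL-17RA/Fc (5 nM stock) added for 90 min; AlphaLISA read with anti-Fc acceptor beads, biotinylated anti-IL-17A antibody (5 nM) and streptavidin donor beads (3 h, dark). IC50 from 4-parameter logistic fit, normalised to DMSO and 4 μM reference inhibitor; n≥2.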

IC50 | SMILES
46 nM | CCc1nonc1C(=O)N[C@H](C(=O)Nc1cc([C@@H](COC)N2C[C@@H](C(F)(F)F)NC2=O)ccn1)C1CCC(Cl)CC1 (stereo partly drawn) [Example 316, N-((1S)-1-(4-chlorocyclohexyl)-2-((4-((S)-2-methoxy-1-((S)-2-oxo-4-(trifluoromethyl)imidazolidin-1-yl)ethyl)pyridin-2-yl)amino)-2-oxoethyl)-4-ethyl-1,2,5-oxadiazole-3-carboxamide]
1890 nM | COC[C@H](c1ccnc(NC(=O)C(NC(=O)c2nonc2C2CC2)C2CCC(F)CC2)c1)N1C[C@@H](C(F)(F)F)NC1=O (single isomer, unassigned) [Example 278]
16 nM | CC1CCC(C(NC(=O)c2ccnn2C)C(=O)Nc2cc(C(C)N3CC(C(F)(F)F)NC3=O)ccn2)CC1 [Example 240, 1-methyl-N-((S)-1-((1r,4S)-4-methylcyclohexyl)-2-oxo-2-((4-((R)-1-((S)-2-oxo-4-(trifluoromethyl)imidazolidin-1-yl)ethyl)pyridin-2-yl)amino)ethyl)-1H-pyrazole-5-carboxamide]
73 nM | COC[C@H](c1ccnc(NC(=O)[C@@H](NC(=O)c2ccnn2C)C2CCC(F)(F)CC2)c1)N1CC(F)(F)CNC1=O [Example 180, N-((S)-2-((4-((S)-1-(5,5-difluoro-2-oxotetrahydropyrimidin-1(2H)-yl)-2-methoxyethyl)pyridin-2-yl)amino)-1-(4,4-difluorocyclohexyl)-2-oxoethyl)-1-methyl-1H-pyrazole-5-carboxamide]
65 nM | CCn1nccc1C(=O)NC(C(=O)Nc1cc([C@@H](COC)N2C[C@@H](C(F)(F)F)NC2=O)ccn1)C1CCC(F)CC1 (single isomer, unassigned) [Example 280]
104 nM | O=C(NC(C(=O)Nc1cc(CN2CC(C(F)(F)F)NC2=O)ccn1)C1CCC(F)CC1)c1nonc1C1CC1 [Example 292, 4-cyclopropyl-N-((S)-1-((1r,4S)-4-fluorocyclohexyl)-2-oxo-2-((4-(((S)-2-oxo-4-(trifluoromethyl)imidazolidin-1-yl)methyl)pyridin-2-yl)amino)ethyl)-1,2,5-oxadiazole-3-carboxamide]
109 nM | COC[C@H](c1ccnc(NC(=O)[C@@H](NC(=O)c2conc2C)C2CCC(Cl)CC2)c1)N1C[C@@H](C(F)(F)F)NC1=O (stereo partly drawn) [Example 313, N-((1S)-1-(4-chlorocyclohexyl)-2-((4-((S)-2-methoxy-1-((S)-2-oxo-4-(trifluoromethyl)imidazolidin-1-yl)ethyl)pyridin-2-yl)amino)-2-oxoethyl)-3-methylisoxazole-4-carboxamide]
34 nM | CC[C@H](c1ccnc(NC(=O)[C@@H](NC(=O)c2nonc2C)[C@H]2CC[C@H](C)CC2)c1)N1C[C@@H](C(F)(F)F)NC1=O [Example 256, 4-methyl-N—((S)-1-((1r,4S)-4-methylcyclohexyl)-2-oxo-2-((4-((R)-1-((S)-2-oxo-4-(trifluoromethyl)imidazolidin-1-yl)propyl)pyridin-2-yl)amino)ethyl)-1,2,5-oxadiazole-3-carboxamide]
40 nM | CCc1nocc1C(=O)NC(C(=O)Nc1cc([C@@H](COC)N2C[C@@H](C(F)(F)F)NC2=O)ccn1)C1CCC(F)CC1 (single isomer, unassigned) [Example 286]
62 nM | COC[C@H](c1ccnc(NC(=O)C(NC(=O)c2nocc2C)C2CCC(F)CC2)c1)N1C[C@@H](C(F)(F)F)NC1=O (single isomer, unassigned) [Example 284]
102 nM | COC[C@H](c1ccnc(NC(=O)[C@@H](NC(=O)c2ccnn2C(C)C)C2CCC(F)(F)CC2)c1)N1CC(F)(F)CNC1=O [Example 181, N-((S)-2-((4-((S)-1-(5,5-difluoro-2-oxotetrahydropyrimidin-1(2H)-yl)-2-methoxyethyl)pyridin-2-yl)amino)-1-(4,4-difluorocyclohexyl)-2-oxoethyl)-1-isopropyl-1H-pyrazole-5-carboxamide]

The remaining lines, values behind:

SMILES | IC50
Cn1nccc1C(=O)N[C@H](C(=O)Nc1cc(CN2C[C@@H](C(F)(F)F)NC2=O)c(F)cn1)[C@H]1CC[C@H](C)CC1 [Example 64, N-((S)-2-((5-fluoro-4-(((S)-2-oxo-4-(trifluoromethyl)-imidazolidin-1-yl)methyl)-pyridin-2-yl)amino)-1-((1r,4S)-4-methylcyclo-hexyl)-2-oxoethyl)-1-methyl-1H-pyrazole-5-carboxamide] | 1230 nM
CCn1nccc1C(=O)N[C@H](C(=O)Nc1cc(C(C2CC2)N2C[C@@H](C(F)(F)F)NC2=O)ccn1)C1CCC(F)(F)CC1 (single isomer, unassigned) [Example 165, N-((1S)-2-((4-((R or S)-cyclopropyl((S)-2-oxo-4-(trifluoromethyl)imidazolidin-1-yl)methyl)pyridin-2-yl)amino)-1-(4,4-difluorocyclohexyl)-2-oxoethyl)-1-ethyl-1H-pyrazole-5-carboxamide] | 41 nM
Cc1n[nH]c(C)c1Cc1ccnc(NC(=O)[C@@H](NC(=O)OC(C)(C)C)[C@H]2CC[C@H](C)CC2)c1 [Example 79, Tert-butyl ((S)-2-((4-((3,5-dimethyl-1H-pyrazol-4-yl)methyl)pyridin-2-yl)amino)-1-((1r,4S)-4-methylcyclohexyl)-2-oxoethyl)carbamate] | 5270 nM
COCC(c1ccnc(NC(=O)[C@@H](NC(=O)c2ncsc2C)[C@H]2CC[C@H](C)CC2)c1)N1C[C@@H](C(F)(F)F)NC1=O (single isomer, unassigned) [Example 91] | 119 nM
CC(C)n1nccc1C(=O)N[C@H](C(=O)Nc1cc(CN2C[C@@H](C(F)(F)F)NC2=O)c(F)cn1)[C@H]1CC[C@H](C)CC1 [Example 63, N-((S)-2-((5-fluoro-4-(((S)-2-oxo-4-(trifluoromethyl)-imidazolidin-1-yl)methyl)-pyridin-2-yl)amino)-1-((1r,4S)-4-methylcyclo-hexyl)-2-oxoethyl)-1-isopropyl-1H-pyrazole-5-carboxamide] | 330 nM
CCc1nonc1C(=O)N[C@H](C(=O)Nc1cc(CN2C[C@@H](C(F)(F)F)NC2=O)ccn1)[C@@H](C)OC(C)(C)C [Example 129, N-((2S,3R)-3-(tert-butoxy)-1-oxo-1-((4-(((S)-2-oxo-4-(trifluoromethyl)-imidazolidin-1-yl)methyl)-pyridin-2-yl)amino)butan-2-yl)-4-ethyl-1,2,5-oxa-diazole-3-carboxamide] | 533 nM
CC(C)n1nccc1C(=O)N[C@H](C(=O)Nc1cc(C(NC(=O)CC(F)(F)F)C2CC2)ccn1)C1CCC(F)(F)CC1 (stereo partly drawn) [Example 160, N-((1S)-2-((4-(cyclopropyl(3,3,3-trifluoropropanamido)methyl)pyridin-2-yl)amino)-1-(4,4-difluorocyclohexyl)-2-oxoethyl)-1-isopropyl-1H-pyrazole-5-carboxamide] | 183 nM
CCc1nocc1C(=O)NC(C(=O)Nc1cc(C(NC(=O)CCC(F)(F)F)C2CC2)ccn1)C1CCC(F)(F)CC1 (centres unmarked) [Example 49, N-(2-((4-(cyclopropyl(4,4,4-trifluorobutanamido)methyl)pyridin-2-yl)amino)-1-(4,4-difluorocyclohexyl)-2-oxoethyl)-3-ethylisoxazole-4-carboxamide] | 776 nM
Cc1cnn(C)c1Cc1ccnc(NC(=O)[C@@H](NC(=O)c2ccnn2C(C)C)[C@H]2CC[C@H](C)CC2)c1 [Example 55, N—((S)-2-((4-((1,4-dimethyl-1H-pyrazol-5-yl)methyl)pyridin-2-yl)amino)-1-((1r,4S)-4-methylcyclohexyl)-2-oxoethyl)-1-isopropyl-1H-pyrazole-5-carboxamide] | 183 nM
